The subject of data set [1] is htt103Q-EGFP. As to the kind of experiment: PC12 htt103Q-EGFP fluorescence assay. The format is cell-based. The conditions noted are these: PC12 cells. The text has this:
A PC12 cell line was engineered to express extended polyQ under the control of an ecdysone-inducible promoter. In the assay cell line, an N-terminal fragment of htt containing an extended polyQ tract was stably expressed as a fusion with EGFP (htt103Q-EGFP), from the pIND vector. Expression of extended polyQ in these cells was controlled by addition of an ecdysone analog, in this case muristerone A. In this assay, EGFP fluorescence directly correlated with htt103Q-EGFP expression levels. This system was designed to assess the effects of specific compounds on overall levels of extended polyglutamines in cells, using a simple fluorescent-based read-out.

The subject of data set [2] is aggregation of 103Q in PC12 cells. The data set is described as follows: polyQ (103Q) aggregation in ecdyson-inducible PC12 cells. In kind it is cell-based, rat. The conditions noted are these: Rattus norvegicus, PC-12. The procedure:
To study the inhibitors we identified using the yeast screen in mammalian cells, we employed ecdyson-inducible rat phaeochromocytoma (PC12) cells. Compounds were tested in two clones, 14A2/5 and 14A2/6, with highest aggregation rate. We incubated undifferentiated PC12 cells with muristerone A to induce 103Q expression, and we exposed the cells to compounds at concentrations ranging from 1 to 10 μM. […] All compounds were non-toxic except C2, which was toxic at concentrations higher than 5 μM.
We tested these analogs at concentrations ranging from 0.025 μM to 5.0 μM for their effects on polyQ aggregation in PC12 cells. Among 24 analogs of C1; 28 analogs of C2; 24 analogs of C3, and 53 analogs of C4, we identified several potent inhibitors of polyQ aggregation. From our C2 focus library, we isolated compound C2-8 (B2 in Table 2), which inhibits polyQ aggregation with an IC50 value 50 nM. We also identified C2-10 (B6 in Table 2) and C2-11 (M16 (formula V(n)) in Table 5), and B7, B8 and B9 in Table 2. From our C3 focus library, we isolated compound C3-5 (M22 (formula V(t)) in Table 5) (having an IC50 value of 100 nM) and compound C3-6 (M17 (formula V(o)) in Table 5) (having an IC50 value of 5 μM). From our C4 library, we isolated compound C4-7 (A31 in Table 1), which has an IC50 value 100 nM. We also identified C4-34 (A3 in Table 1).

Data set [3] deals with HD Q51 aggregates in Cos1 cells. As to the kind of experiment: HD Q51 aggregation in transfected Cos1 cells, cellulose acetate membrane trap. The conditions noted are these: Chlorocebus aethiops, COS-1; Cos1 cells transfected with HD Q51; read-out: IC50, polyQ aggregation (retained polyQ on membrane). In kind it is cell-based. The method, then: The inhibitory activity we observed with C1-C4 in the PC12 cell model described above was confirmed in Cos1 cells transiently transfected with a CMV promoter-based DNA construct that encodes an Htt exon I fragment of Huntington's disease protein (Htt)) having 51 consecutive glutamine residues (HD Q51). When expressed in Cos1 cells, HD 51Q polypeptides readily form aggregates. Transfected Cos1 cells were incubated with C1-C4 compounds in culture medium and lysed. The lysates were then heat-denatured in SDS and passed through a cellulose acetate membrane, which captures aggregated, but not soluble polypeptides. Polyglutamine aggregates trapped on membranes were detected by immunostaining with antibody specific to extended polyQ. Pre-incubation of cells with compounds C1, C3, and C4 decreased the amount of retained polyQ, indicating inhibitory effects on polyQ aggregation. The IC50 for compound C1 was 10 μM and the IC50 for compounds C3 and C4 was 5 μM. As C2 was toxic for Cos1 cells, its effect on aggregation was not determined.

Data set [4] deals with SP1 trancription factor binding motif (6XSP1) promoter. The data set is described as follows: 6XSP1 luciferase transcription-based assay in 111Q/111Q striatum double knock-in cells. The format is cell-based, mouse. The settings on record: 6XSP1 luciferase reporter; for transcription activation: CG4 among CG series, less potent than C9-4. The method, then:
FIGS. 1A-1C. FIG. 1A is a bar graph showing luciferase expression in Sp1-luc/111Q striatum double knock-in cells following treatment with different compounds, as indicated. Fluorescence was measured 24 hours after addition of compound. FIG. 1B is a bar graph as described in FIG. 1A. Fluorescence was measured 48 hours after addition of compound. FIG. 1C is a bar graph as described in FIG. 1A. Fluorescence was measured 72 hours after addition of compound.
We conducted structure activity relationship (SAR) studies to optimize transcription activation. We developed a novel transcription-based assay for this purpose. A luciferase reporter gene was stably integrated into 111Q/111Q striatum double knock-in cells and constitutively expressed under control of a promoter containing six copies of the SP1 trancription factor binding motif (6XSP1). In this system, C9 was determined to have an EC200 of 7.5 μM.

The test system of data set [5] is mutant Huntingtin transgene (htt). The data set is described as follows: transgene (mutant htt, extended polyQ) expression in inducible PC12 cells. In kind it is cell-based, rat. The conditions noted are these: PC12 cells, with scriptaid. The source says: (§1) The compound C9 (A33 in Table 1) has structural similarity to the histone deacetylase (HDAc) inhibitor, scriptaid (6-(1,3-Dioxo-1H,3H-benzo[de]isoquinolin-2-yl)-N-hydroxyhexanamide) (Su et al., Cancer Res. 60:3137, 2000; A5 in Table 1). We observed the most dramatic effect on expression level by C9 and scriptaid in the PC12 cell line 14A2/6 expressing the extended polyQ mutant htt(104Q). The effect of C9 on the down-regulation of polyQ expression, was similar to cystamine, a drug that has shown efficacy in a mouse model for Huntington's Disease (HD). […] 14A2/6 cells were at least 5-fold more responsive to chemical treatment than other cell lines tested.
Transcriptional dysregulation is a hallmark of HD. […] Expression of the polypeptide was under control of an inducible ecdysone receptor (EcR)-based promoter.

Data set [6] concerns PC12 cells. The data set is described as follows: rescue from scriptaid-dependent synthetic lethality in PC12 cells. The format is cell-based, rat.
Source text: as §1

The subject of data set [7] is R2/6 HD mice. The conditions noted are these: cited from earlier work.
For data set [8], the target named is T1, Recombinant HD Q51 polypeptide (Homo sapiens, UniProt P42858, INS38QQQQQQQQQQQQQQQQQQQQQQQQQQQQQQ).
T1 construct: made in house
T1 sequence (P42858 with tags, fused parts or gaps with the stated changes): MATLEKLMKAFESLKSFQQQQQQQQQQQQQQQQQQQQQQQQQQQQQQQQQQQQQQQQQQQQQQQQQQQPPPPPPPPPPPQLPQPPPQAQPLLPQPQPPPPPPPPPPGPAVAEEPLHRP
As to the kind of experiment: cell-free trap assay of purified polyQ. The format is biochemical. The conditions noted are these: cell-free trap assay; read-out: IC50, aggregation of purified polyQ. The procedure: To determine whether C2 could directly interfere with polyQ aggregation, we reproduced this process in vitro and assayed the inhibitory effects of the compounds in a cell-free trap assay. Recombinant HD Q51 polypeptide, purified from bacteria, was incubated in the presence or in the absence of C2 for a time sufficient to allow aggregation. Then, upon heat-denaturation in SDS buffer, samples were filtered through a cellulose acetate membrane. Harsh denaturation conditions separated unaggregated soluble peptides, which passed through the membrane, and insoluble aggregates, which were retained on the membrane. The polyQ aggregates trapped on the membrane were subsequently immunostained and quantified.
Congo Red, which is structurally unrelated to C2-8, was used as a control.

Data set [9] deals with polyQ aggregates (HD Q150) in neurons of R6/2 mouse brain slices. As to the kind of experiment: polyQ aggregation in R6/2 brain slice cultures. The settings on record: 3-week time point. The format is cell-based. The procedure:
The effects of the selected compounds on polyQ aggregation in neuronal tissues were assessed in brain slice cultures from the transgenic mouse R6/2 model of HD. R6/2 mice ubiquitously express human Huntingtin exon I containing 150Q (HD Q150), which causes neuropathology resembling key neurological changes in HD patients. Formation of neuronal polyQ aggregates precedes pathological behavioural changes in R6/2 mice. An organotypic slice culture assay has been developed in order to establish an ex vivo system that closely models the process of aggregation occurring in R6/2 mouse brains. […] The potency of any aggregate inhibitor can be assessed directly in neurons in brain slices (thus bypassing the blood brain barrier, the major obstacle to test compounds in neuronal tissues).
Aggregation in brain slice cultures was assessed during four weeks using three parameters: (1) the number of aggregates per square millimeter, (2) the density of individual aggregates, and (3) the size of the aggregates. These parameters can be assessed in any of the assays described herein. […] To obtain statistically significant data, 20 sections for each sample were quantified with a macro computer program (Paul Wetton at Image Associates, UK), which measured aggregate count, aggregate density and aggregate size. […]

For data set [10], the system named is HDAc. The data set is described as follows: HDAc activity. The format is biochemical. The settings on record: at high concentrations; down-regulation of HDAc 5.
Data set [11] has as its system polyQ-containing polypeptides. The data set is described as follows: aggregation of polyQ-containing polypeptides, assay not specified.
Data set [12] deals with cells. The data set is described as follows: nonspecific toxicity to cells. In kind it is cell-based.
[13] abbreviates: PC12 clones 14A2/5 and 14A2/6, muristerone A induced, 1 to 10 μM, read-out: IC50, aggregation of 103Q.
Where [14] appears, read: PC12 cells, focus library analogs, 0.025 μM to 5.0 μM, read-out: IC50, polyQ aggregation.

Read-outs that look alike come from different tables or passages of the source.

As for `CCN(CC)C(=O)c1sc(NC(=O)c2ccc(F)cc2)c(C(=O)OC(C)C)c1C` [Compound D3, 5-Diethylcarbamoyl-2-(4-fluoro-benzoylamino)-4-methyl-thiophene-3-carboxylic acid isopropyl ester], the “effect on protein aggregation” value in data set [1] was “facilitators of protein aggregation”.

Regarding `O=C1c2cccc3c(N4CCOCC4)ccc(c23)C(=O)N1Cc1ccccc1` [Compound C4, 2-Benzyl-6-morpholin-4-yl-benzo[de]isoquinoline-1,3-dione], the IC50 in [2] (setting [13]) was determined as 2.5 µM; in [3] it was 5 µM. Take `CCOC(=O)c1sc(NC(=O)c2cc(S(N)(=O)=O)c(Cl)cc2Cl)c(C(=O)OCC)c1C` [Compound D4, 5-(2,4-Dichloro-5-sulfamoyl-benzoylamino)-3-methyl-thiophene-2,4-dicarboxylic acid diethyl ester]: the “effect on protein aggregation” value in [1] was “inhibit protein aggregation”. As to `O=C1c2cccc3cccc(c23)C(=O)N1CCNCO` [Compound C9-3, 2-[2-(Hydroxymethyl-amino)-ethyl]-benzo[de]isoquinoline-1,3-dione], the transcription activation entry in [4] was “did not effectively activate transcription”. In the case of `c1ccc(-c2nc3cnc4ccccc4c3s2)cc1` [Compound C3-6, 2-Phenyl-thiazolo[4,5-c]quinoline], the IC50 in [2] (setting [14]) stood at 5 µM. On to `O=C1c2cccc3c(N4CCCCC4)ccc(c23)C(=O)N1CO` [Compound C4-7, 2-Hydroxymethyl-6-piperidin-1-yl-benzo[de]isoquinoline-1,3-dione], for which, in data set [2] (setting [14]), the IC50 was determined as 0.1 µM.

As for `NCCSSCCN` [cystamine, reference compound], in [5], the “effect on scriptaid-stimulated expression and aggregation” value is “reversed the stimulatory effect”. Also, the “rescue from scriptaid-dependent synthetic lethality” value in [6] is “rescued”. For the same compound, in data set [7], the protein aggregation entry is recorded as “blocked protein aggregation” and the survival result is reported as “prolonged the survival”. Consider `CCN1C(=O)c2cccc3c(NC(C)=O)ccc1c23` [CG4, N-(1-Ethyl-2-oxo-1,2-dihydro-benzo[cd]indol-6-yl)-acetamide], for which the transcription activation entry in data set [4] is “most potent transcriptional activator”. Take `O=C(Nc1ccc(Br)cc1)c1cccc(S(=O)(=O)Nc2ccc(Br)cc2)c1` [Compound C2-8, N-(4-Bromo-phenyl)-3-(4-bromo-phenylsulfamoyl)-benzamide]: the IC50 is 0.05 µM in data set [2] (setting [14]) and 25 µM in data set [8]. In data set [9], this compound gave a concentration inhibiting aggregates intensity and area of 10 µM. `O=C1c2cccc3cccc(c23)C(=O)N1CCN1CCCCC1` [Compound C9-4, 2-(2-Piperidin-1-yl-ethyl)-benzo[de]isoquinoline-1,3-dione]: the HDAc inhibitory activity result in data set [10] is “indirect HDAc inhibitory activity”. Turning to `CN(C)CCCN1C(=O)c2cccc3cccc(c23)C1=O` [Compound C91, 2-(3-Dimethylamino-propyl)-benzo[de]isoquinoline-1,3-dione], the effect on aggregation result in [11] is given as “facilitate protein-protein aggregation”. Further, in [4], the “EC200, transcription activation” value stood at 4 µM. Consider `CN(C)CCN1C(=O)c2ccc(Cl)c3c(Cl)ccc(c23)C1=O` [Compound C1, 6,7-Dichloro-2-(2-dimethylamino-ethyl)-benzo[de]isoquinoline-1,3-dione], for which the IC50 in data set [2] (setting [13]) and in [3] was 10 µM throughout. `CC/C(=C/c1sc2ccc3ccccc3c2[n+]1CCCS(=O)(=O)[O-])SC` [Compound C3, 3-[2-(2-Methylsulfanyl-but-1-enyl)-naphtho[1,2-d]thiazol-1-yl]-propane-1-sulfonic acid anion]: the half-maximal inhibitory concentration (IC50) in data set [2] (setting [13]) and in [3] was 5 µM each time. Regarding `CN(C)CCN1C(=O)c2cccc3cccc(c23)C1=O` [Compound C9-1B, 2-(2-Dimethylamino-ethyl)-benzo[de]isoquinoline-1,3-dione], the “range of weak nonspecific toxicity” value in data set [12] lay within 1.25 to 5.0 µM. In addition, the “EC200, transcription activation” value in [4] is 0.05 µM.
